pEC50: −log10 of the molar value. Values joined by “and” are separate entries in the source; they are usually repeats but may differ in a detail not shown here. Identical values can stand only once.
System: PK1 neuroblastoma cells exposed to TPrP
Assay: cells
Assay type: cell-based
Details: PK-1, 96 h, read-out: TPrP EC50

Structure (SMILES)	pEC50
Cc1cc(C(C)c2nnc(NC3CCc4ccccc43)c3ccccc23)ccn1 (centres unmarked) [SR-35430]	< 6.05
c1ccc2c(c1)CC(Nc1nnc(Cc3ccncc3)c3ccccc13)CO2 (centres unmarked) [SR-27889]	6.55
O=S(=O)(c1cccc(Nc2nnc(Cc3ccncc3)c3ccccc23)c1)N1C2CCC1COC2 [SR-35427]	8.15
Fc1cccc2nc(Nc3nnc(Cc4ccncc4)c4ccccc34)oc12 [SR-32074]	7.52
CC(=O)c1cccc(Nc2nnc(C(C)c3ccncc3)c3ccccc23)c1 (centres unmarked) [SR-34644]	7.35
CO/N=C(\C)c1cccc(Nc2nnc(Cc3ccncc3)c3ccccc23)c1 [SR-30014]	8.70
C/C(=N\O)c1cccc(Nc2nnc(Cc3ccncc3)c3ccccc23)c1 [SR-30013]	8.70
CC(c1ccncc1)c1nnc(NCc2cc3ccccc3o2)c2ccccc12 (centres unmarked) [SR-34645]	~6.30
c1ccc2c(c1)ccc1oc(Nc3nnc(Cc4ccncc4)c4ccccc34)nc12 [SR-32077]	6.87
c1ccc2[nH]c(CNc3nnc(Cc4ccncc4)c4ccccc34)nc2c1 [SR-27887]	6.66
Cc1ccc2nc(Nc3nnc(Cc4ccncc4)c4ccccc34)oc2c1 [SR-32066]	7.30
Fc1cccc2oc(Nc3nnc(Cc4ccncc4)c4ccccc34)nc12 [SR-32070]	7.70
c1ccc2oc(Nc3nnc(Cc4ccncc4)c4ccccc34)nc2c1 [SR-30010]	8.70
O=S(=O)(c1ccc(Nc2nnc(Cc3ccncc3)c3ccccc23)cc1)N1CCOCC1 [SR-35425]	8.30
CC(O)c1cccc(Nc2nnc(Cc3ccncc3)c3ccccc23)c1 (centres unmarked) [SR-29684]	8.70
Fc1ccc2oc(Nc3nnc(Cc4ccncc4)c4ccccc34)nc2c1 [SR-32067]	7.70
c1ccc(OCCNc2nnc(Cc3ccncc3)c3ccccc23)cc1 [SR-27892]	6.30
c1ccc2[nH]c(CNc3nnc(Cc4ccncc4)c4ccccc34)cc2c1 [SR-30006]	7.30
CC(=O)c1cccc(Nc2nnc(Cc3ccnc(C)c3)c3ccccc23)c1 [SR-33871]	7.15
CC(=O)c1cccc(Nc2nnc(Cc3cc(C)nc(C)c3)c3ccccc23)c1 [SR-32064]	< 6.40
Clc1ccc(Nc2nnc(Cc3ccncc3)c3ccccc23)cc1 [vatalanib, reference compound]	7.22
c1cc(Nc2nnc(Cc3ccncc3)c3ccccc23)cc(C2COC2)c1 [SR-35426]	8.00
Cc1cc(C(C)c2nnc(NCC3CCOCC3)c3ccccc23)ccn1 (centres unmarked) [SR-35429, 4-(1-(2-methylpyridin-4-yl)ethyl)-N-((tetrahydro-2H-pyran-4-yl)methyl)phthalazin-1-amine]	7.59
Cc1cccc2nc(Nc3nnc(Cc4ccncc4)c4ccccc34)oc12 [SR-32075]	< 6.40
COc1ccc2oc(Nc3nnc(Cc4ccncc4)c4ccccc34)nc2c1 [SR-32076]	7.70
c1ccc2c(c1)CC(Nc1nnc(Cc3ccncc3)c3ccccc13)C2 [SR-27885]	6.70
O=[N+]([O-])c1ccc2oc(Nc3nnc(Cc4ccncc4)c4ccccc34)nc2c1 [SR-32068]	7.70
Cc1cccc2oc(Nc3nnc(Cc4ccncc4)c4ccccc34)nc12 [SR-32072]	7.52

Structure (SMILES)	pEC50
c1ccc2c(NCC3CCCO3)nnc(Cc3ccncc3)c2c1 (centres unmarked) [SR-30004]	6.82
Cc1cc(C(C)c2nnc(NCC3COc4ccccc4C3)c3ccccc23)ccn1 (centres unmarked) [SR-35432]	< 6.05
O=S(=O)(c1cccc(Nc2nnc(Cc3ccncc3)c3ccccc23)c1)N1CC2CCC(C1)O2 [SR-35428]	8.22
Cc1cc(C(C)c2nnc(NCc3ccco3)c3ccccc23)ccn1 (centres unmarked) [SR-35433]	< 6.05
c1ccc2c(c1)CCC2Nc1nnc(Cc2ccncc2)c2ccccc12 (centres unmarked) [SR-27884]	6.30
CC(=O)c1cccc(Nc2nnc(Cc3ccncc3)c3ccccc23)c1 [SR005]	7.82
c1ccc2c(NCC3CCCCO3)nnc(Cc3ccncc3)c2c1 (centres unmarked) [SR-30007]	7.22
CC(=O)c1cccc(Nc2nnc(Cc3ccncc3C(F)(F)F)c3ccccc23)c1 [SR-33876]	< 6.30
COc1cc(Cc2nnc(NCc3cc4ccccc4o3)c3ccccc23)ccn1 [SR-33875]	< 6.30
O=S(=O)(c1cccc(Nc2nnc(Cc3ccncc3)c3ccccc23)c1)N1CCOCC1 [SR-35424]	8.05
COc1cc(Cc2nnc(Nc3cccc(C(C)=O)c3)c3ccccc23)ccn1 [SR-33874]	< 6.30
c1ccc2cc3oc(Nc4nnc(Cc5ccncc5)c5ccccc45)nc3cc2c1 [SR-32073]	6.60
c1ccc2c(NCC3CCOCC3)nnc(Cc3ccncc3)c2c1 [SR-30008]	7.82
CC(=C(F)F)c1cccc(Nc2nnc(Cc3ccncc3)c3ccccc23)c1 [SR-31144]	< 6.40
Cc1cc(Cc2nnc(Nc3nc4ccccc4o3)c3ccccc23)ccn1 [SR-33872]	< 6.30
c1ccc2oc(CNc3nnc(Cc4ccncc4)c4ccccc34)nc2c1 [SR-27888]	7.35
CC(=O)c1cccc(Nc2nnc(Cc3ccnc(C(F)(F)F)c3)c3ccccc23)c1 [SR-33873]	< 6.30
Cc1cc(Cc2nnc(Nc3nc4ccccc4o3)c3ccccc23)cc(C)n1 [SR-32065]	< 6.40
CC(=O)c1cccc(Nc2nnc(C(c3ccncc3)C(F)(F)F)c3ccccc23)c1 (centres unmarked) [SR-34646]	< 6.30
c1ccc2c(c1)CC(CNc1nnc(Cc3ccncc3)c3ccccc13)CO2 (centres unmarked) [SR-27890]	6.78
Cc1cc(C(C)c2nnc(Nc3cccc(C4COC4)c3)c3ccccc23)ccn1 (centres unmarked) [SR-35431]	< 6.05
O=[N+]([O-])c1cccc2oc(Nc3nnc(Cc4ccncc4)c4ccccc34)nc12 [SR-32069]	8.10
c1ccc2oc(CNc3nnc(Cc4ccncc4)c4ccccc34)cc2c1 [SR-30011]	8.70
c1coc(CNc2nnc(Cc3ccncc3)c3ccccc23)c1 [SR-30005]	6.85
CC1(c2cccc(Nc3nnc(Cc4ccncc4)c4ccccc34)c2)OCCO1 [SR-30012]	8.70
Fc1ccc2nc(Nc3nnc(Cc4ccncc4)c4ccccc34)oc2c1 [SR-32071]	7.05
COc1ccc(CNc2nnc(Cc3ccncc3)c3ccccc23)cc1OC [SR-27886]	6.82

Same assay, conditions: read-out: TPrP EC50

Structure (SMILES)	pEC50
CC(=O)c1cccc(Nc2nnc(Cc3ccncc3)c3ccccc23)c1 [SR005]	7.70 and 7.60

Source: patent US20240174651A1, “COMPOUNDS AND USE THEREOF FOR TREATMENT OF NEURODEGENERATIVE, DEGENERATIVE AND METABOLIC DISORDERS” (THE SCRIPPS RESEARCH INSTITUTE, priority 2021, published 2024)
